In US11578110B2, “Compounds for inducing tissue formation and uses thereof” (HISTIDE AG, priority 2015, dated 2023):

Test system: hMSCs
Assay: STRO-1 stemness marker expression in hMSCs (immunostaining, ImageJ quantification)
Type: cell-based, Human
Procedure: The cells were first fixed for 20 min with 4% paraformaldehyde/PBS at 4° C. After fixation, the cells were permeabilized in PBS containing 1% Triton X-100 for 15 min. Runx2, Osterix, Stro-1, Vinculin, Phalloidin, Osteopontin, Sox2, Sox9 antibodies were visualized by treating the cells with 1% (v/v) specific monoclonal antibodies for 1 hour at 37° C. Then the samples were incubated with Alexa fluor® 568 or 647 (F(ab′)2 fragment of IgG(H+L)) during 30 min at room temperature. The cell nuclei were counterstained in 20 ng/mL DAPI for 10 min at room temperature.
For this type of quantification the freeware image analysis ImageJ® software was used. The raw image was first converted to an 8-bit file, and then the unsharp mask feature was used (settings 1:0.2) to remove the image background (rolling ball radius 10). After smoothing, the resulting image, which appears similar to the original photomicrograph but with minimal background, was then converted to a binary image by setting a threshold. Threshold values were determined empirically by selecting a setting, which gave the most accurate binary image for a subset of randomly selected photomicrographs. The cell area was determined by manual delineation on raw fluorescent images. Total contact area and mean contact area per cell were calculated by “analyse particles” in ImageJ®. A minimum of 30 cells per condition were analyzed. Stro-1, CD-34+, and CD-105 expressions were determined using this procedure.
hMSCs were cultured on conventional cell culture plastic plates with or without the presence in the cell culture media of different GFR-binding compounds as defined hereins (SEQ ID NO: 50 to 104) in solution. […] This was probed by Stro-1 immunostaining after cell fixation as described in the Methods section. The quantification of Stro-1 positive contact numbers and areas was performed as described in the Methods section. A minimum of 30 cells per condition were analyzed.
RMSD values are always calculated for a GFR-binding peptide sequence exempt from any bioactive-carrier-affinity-containing group as defined herein (e.g. cysteine, WWFWG, GTPGP, etc. . . . ). When needed i.e. when attachment to a bioactive carrier is contemplated, the bioactive-carrier-affinity-containing group is then present in the GFR-binding compound when it is biologically tested. Using the method detailed in the description, the RMSD of 57 previously reported peptide sequences have been determined (Table 6) and correlated with the expression of STRO-1 after grafted on a PET surface via a procedure as already described above. […] One should note that it is commonly admitted that the expression of STRO-1 in a cell is indicative of a cell that is in a substantially non-differentiated state and the decrease of its expression of at least about 20% is indicative of a cell that has started a processes of differentiation but which may not result in the differentiation of the cell. A decrease of more than 50% would be indicative of the presence of a significant shift towards a differentiated state. A decrease of more than 70% would be indicative of the presence of a very important shift towards a differentiated state. A sustained decrease (e.g. for at least 96 h) of more than 50% or 70% would be indicative of the presence of an even more important shift towards a differentiated state.
Likewise, using the method detailed in the description, the RMSD of 87 GFR-binding peptide sequence representatives of the invention have been determined (Table 7) and correlated with the expression of STRO-1 after grafted on a PET surface via a procedure as already described above. SEQ ID NO: 1 to 49 were tested in combination with a bioactive carrier as defined above in the Examples Section (i.e. titanium, ceramics, PEEK, hydrogel, etc. . . . ), whereas SEQ ID NO: 1143 to 1180 were tested in solution.

[1] = SEQ ID NO: 1143 to 1180 tested in solution
[2] = SEQ ID NO: 1 to 49 tested in combination with a bioactive carrier (titanium, ceramics, PEEK, hydrogel, etc.)

Sequence “KIPKASSTQVRLRPVQIRKI (GFR-binding peptide) [SEQ ID NO: 1153]” has an STRO-1 expression [1] of 30%.
For “KIPKASSTQVRLRSVKTAKV (GFR-binding peptide) [SEQ ID NO: 1178]”, the STRO-1 expression [1] was 35%.
Work on “KIPKASSVPAQLEPLPIVYY (GFR-binding peptide) [SEQ ID NO: 1171]” yielded an STRO-1 expression [1] of 28%.
KIPKASSVPTELSATSVLYY [SEQ ID NO: 6] gave an STRO-1 expression [2] of 25%.
Work on “KIPKASSVPTGGSNITVQIM (GFR-binding peptide) [SEQ ID NO: 1151]” yielded an STRO-1 expression [1] of 32%.
Sequence “KIPKASSVPTKMKPLSVLYV (GFR-binding peptide) [SEQ ID NO: 1168]” has an STRO-1 expression [1] of 21%.
Work on “KIPKASSVSQKMEPLTMLYY (GFR-binding peptide) [SEQ ID NO: 1150]” yielded an STRO-1 expression [1] of 20%.
“KIPKASSVSQQLEPISTLYL (GFR-binding peptide) [SEQ ID NO: 1165]” was tested, and the STRO-1 expression [1] was 17%.
“KIPKPSSAPTELSAISMC (Previously reported sequence) [SEQ ID NO: 1129, reference compound]” was tested, and the STRO-1 expression (grafted on a PET surface) was 78%.
Work on “KIPKPSSAPTELSAISMLC (Previously reported sequence) [SEQ ID NO: 1132, reference compound]” yielded an STRO-1 expression (grafted on a PET surface) of 82%.
For “KIPKPSSAPTELSAISMLYC (Previously reported sequence) [SEQ ID NO: 1133, reference compound]”, the STRO-1 expression (grafted on a PET surface) was 80%.
“KPCCAPTELSAISVLYFDDSSNVILKKYRNMVVRACGCR (Previously reported sequence) [SEQ ID NO: 1142, reference compound]” gave an STRO-1 expression (grafted on a PET surface) of 83%.
“KPCCAPTQLSAISVLYFDDSSNVILKKYRNMVVRACGCR (Previously reported sequence) [SEQ ID NO: 1141, reference compound]” was tested, and the STRO-1 expression (grafted on a PET surface) was 80%.
For KVGKASSVPTKLEPLTILYY [SEQ ID NO: 13], the STRO-1 expression [2] was 26%.
Sequence KVGKASSVPTKLSAISMLYL [SEQ ID NO: 20] has an STRO-1 expression [2] of 19%.
KVGKASSVSQKLEPLTILYY [SEQ ID NO: 10] showed an STRO-1 expression [2] of 32%.
“LGIAAIIFLQQVPAAFSATSPPG (Previously reported sequence) [SEQ ID NO: 1113, reference compound]” was tested, and the STRO-1 expression (grafted on a PET surface) was 97%.
“LMDLARMPSCLRGERAVPQDTTGYFTWSSNITPLNFIF (Previously reported sequence) [SEQ ID NO: 1093, reference compound]” gave an STRO-1 expression (grafted on a PET surface) of 92%.
Sequence “LNEVLRFCGIQVPEGDEPLTY (Previously reported sequence) [SEQ ID NO: 1095, reference compound]” has an STRO-1 expression (grafted on a PET surface) of 99%.
Work on “LSLLAPPEPVWNHETSYGSDCHVPTNVNAISKMIDKSNHQTG (Previously reported sequence) [SEQ ID NO: 1125, reference compound]” yielded an STRO-1 expression (grafted on a PET surface) of 93%.
Work on “MAAQDEWRDAITLTMGRDLKKVPQHLNAISVIDPVT (Previously reported sequence) [SEQ ID NO: 1124, reference compound]” yielded an STRO-1 expression (grafted on a PET surface) of 83%.
“MALPQPRGSSLSKAPVVVAPCMALKRVNIRSIVFEVLKTMNQNCIHETPN (Previously reported sequence) [SEQ ID NO: 1123, reference compound]” showed an STRO-1 expression (grafted on a PET surface) of 82%.
Work on “MQCRELVTQVTEEPISQTEDGEEQESTTTPRLKGQKKE (Previously reported sequence) [SEQ ID NO: 1104, reference compound]” yielded an STRO-1 expression (grafted on a PET surface) of 85%.
“MRTESTPTTASAISYECLWSPPSNEAAKLHFDS (Previously reported sequence) [SEQ ID NO: 1137, reference compound]” was tested, and the STRO-1 expression (grafted on a PET surface) was 94%.
“MSRVLFEPLTFLQTGSGLPDEKTLG (Previously reported sequence) [SEQ ID NO: 1096, reference compound]” showed an STRO-1 expression (grafted on a PET surface) of 94%.
In the case of NDEGLESAPTEENAISVLYF [SEQ ID NO: 4], the STRO-1 expression [2] is reported as 22%.
NDEGLESAPTGQNAISVLYF [SEQ ID NO: 5] showed an STRO-1 expression [2] of 27%.
For NDEGLESVPAEESPISILYI [SEQ ID NO: 45], the STRO-1 expression (SEQ ID NO: 1 to 49 tested in combination with a bioactive carrier (titanium, ceramics, PEEK, hydrogel, etc.), listed as 45) was 16%.
Work on NDEGLESVPAEESPISILYI [SEQ ID NO: 47] yielded an STRO-1 expression (SEQ ID NO: 1 to 49 tested in combination with a bioactive carrier (titanium, ceramics, PEEK, hydrogel, etc.), listed as 47) of 18%.
“NDEGLESVPEDLSSLSVLFF (GFR-binding peptide) [SEQ ID NO: 1143]” was tested, and the STRO-1 expression [1] was 23%.
For NDEGLESVPTGQNAISVLYF [SEQ ID NO: 17], the STRO-1 expression [2] was 31%.
With “NEVLRFCGIQVPEGDEPLT (Previously reported sequence) [SEQ ID NO: 1094, reference compound]” the STRO-1 expression (grafted on a PET surface) was 98%.
Sequence “NPGASASPCCVSQDLEPLPIL (Previously reported sequence) [SEQ ID NO: 1098, reference compound]” has an STRO-1 expression (grafted on a PET surface) of 86%.
“PIIYYVGRNVRVEQLSNMVVRA (Previously reported sequence) [SEQ ID NO: 1087, reference compound]” was tested, and the STRO-1 expression (grafted on a PET surface) was 92%.
“PIIYYVGRNVRVEQLSNMVVRRA (Previously reported sequence) [SEQ ID NO: 1088, reference compound]” gave an STRO-1 expression (grafted on a PET surface) of 98%.
Sequence “PNYSVPAGNKPLSERE (Previously reported sequence) [SEQ ID NO: 1100, reference compound]” has an STRO-1 expression (grafted on a PET surface) of 95%.
In the case of RNVQSRPTQVQLNAISVLYF [SEQ ID NO: 11], the STRO-1 expression [2] is reported as 24%.
RNVQSRPTQVQLSAISMLYL [SEQ ID NO: 14] was tested, and the STRO-1 expression [2] was 16%.
“RVPSTSSAPTKMKPLSMLYV (GFR-binding peptide) [SEQ ID NO: 1169]” showed an STRO-1 expression [1] of 22%.
For “RVPSTSSAPTKMNAISMLYF (GFR-binding peptide) [SEQ ID NO: 1145]”, the STRO-1 expression [1] was 23%.
“RVPSTSSTQVDLNAISVLYF (GFR-binding peptide) [SEQ ID NO: 1159]” gave an STRO-1 expression [1] of 23%.
For “RVPSTSSTQVKMSAISMLYL (GFR-binding peptide) [SEQ ID NO: 1155]”, the STRO-1 expression [1] was 17%.
“RVPSTSSVPAEESNITVQIM (GFR-binding peptide) [SEQ ID NO: 1176]” gave an STRO-1 expression [1] of 26%.
RVPSTSSVPAKTSPISILYI [SEQ ID NO: 43] gave an STRO-1 expression [2] of 15%.
For “RVPSTSSVPEKMEPLTMLYY (GFR-binding peptide) [SEQ ID NO: 1173]”, the STRO-1 expression [1] was 18%.
“RVPSTSSVPTGQSAISTLYL (GFR-binding peptide) [SEQ ID NO: 1144]” gave an STRO-1 expression [1] of 19%.
“SATSRLALSDVPAELAA (Previously reported sequence) [SEQ ID NO: 1112, reference compound]” gave an STRO-1 expression (grafted on a PET surface) of 98%.
“SFRTARANAPTGRSSLSGEKEQQEASTHS (Previously reported sequence) [SEQ ID NO: 1120, reference compound]” was tested, and the STRO-1 expression (grafted on a PET surface) was 91%.
“SHQSAGDSIKSPARHSAPTHQEPLPD (Previously reported sequence) [SEQ ID NO: 1099, reference compound]” showed an STRO-1 expression (grafted on a PET surface) of 91%.
Sequence “SPISILVVPELDASLPEKRPSLDGFEALLVYNAPKA (Previously reported sequence) [SEQ ID NO: 1106, reference compound]” has an STRO-1 expression (grafted on a PET surface) of 82%.
Work on “SRVLPIVVQGYVPVQDTKFLGIYYVIGPIIARVILSSSSAISSLNKS (Previously reported sequence) [SEQ ID NO: 1138, reference compound]” yielded an STRO-1 expression (grafted on a PET surface) of 84%.
In the case of “SSVPAVCSATSATGPYSSGSVEVTFDVYATTVY (Previously reported sequence) [SEQ ID NO: 1116, reference compound]”, the STRO-1 expression (grafted on a PET surface) is reported as 92%.
